Data set [1] addresses T1, AtTIR1 (F79G) (Arabidopsis thaliana, UniProt Q570C0, D170E/F79G/M473L). Kind of data set: AID*::GFP reporter degradation in embryos expressing AtTIR1 (F79G)::mRuby. The data set is classed as in vivo. Details: expressed in transfected cells. The method, then: Rapid removal of the target in the embryos is useful for analyzing a role of a protein in embryogenesis. Initially, 5-Ph-IAA was used to test the efficacy of protein removal in embryos. An egg-planting embryo expressing AtTIR1 (F79G)::mRuby and AID*::GFP was placed in a droplet of an M9 buffer including 50 μM 5-Ph-IAA, and then the reporter intensity was monitored (see FIG. 4A).
An egg-planting embryo expressing AtTIR1 (F79G)::mRuby and AID*::GFP was placed in a droplet of an M9 buffer including 50 μM 5-Ph-IAA-AM, and then the reporter intensity was monitored (see FIG. 4D).

Data set [2] concerns nematodes. As to the kind of experiment: number of progeny of L1 larvae grown in the presence of ligand. The data set is classed as in vivo, C. elegans. The settings on record: 5 μM 5-Ph-IAA, L1 larvae expressing AID*::GFP with AtTIR1 (F79G). The method, then:
Next, in order to confirm that 5-Ph-IAA is safer than IAA against nematodes, L1 larvae expressing AID*::GFP were each grown with AtTIR1 or AtTIR1 (F79G) in the presence of 1 mM IAA or 5 μM 5-Ph-IAA.

Data set [3] concerns the target T1, AtTIR1 (F79G). As to the kind of experiment: AID*::GFP reporter degradation in adult nematodes expressing AtTIR1 (F79G). The data set is classed as in vivo. Details: expressed in transfected cells; host or cells: transgenic C. elegans (CRISPR-Cas9 knock-in at the ttTi5605 locus; larvae, adults, embryos). Conditions: 5 μM 5-Ph-IAA for 4 hours. The method, then: (§1) Furthermore, the efficacy of the AID2 system in adults was tested.

Data set [4] addresses T1, AtTIR1 (F79G). The data set is classed as in vivo. More on the design: expressed in transfected cells; host or cells: transgenic C. elegans (CRISPR-Cas9 knock-in at the ttTi5605 locus; larvae, adults, embryos). How it is done: (§2) Next, L1 larvae were grown on plates including ligands at different concentrations. The intensity of the AID*::GFP reporter of larvae (second generation) born from adults was monitored.
as §1

Data set [5] has as its target T2, AtTIR1 (Arabidopsis thaliana, UniProt Q570C0, D170E/M473L).
T2 construct: expressed in transfected cells; host or cells: transgenic C. elegans (larvae)
Kind of data set: AID*::GFP reporter level in second generation larvae expressing AtTIR1, grown on ligand plates. The data set is classed as in vivo. The settings on record: combined with AtTIR1, larvae treated for one generation; read-out: estimated DC50 value (ligand concentrations required for 50% degradation). The method, then: as §2, §1

Data set [6] addresses AID*::GFP (Arabidopsis thaliana).
For data set [7] the target is unchanged. This is another data set of the same source.
For data set [8] the target is unchanged. The source holds these as a separate data set.

T1 sequence (Q570C0 whole entry F79G/D170E/M473L): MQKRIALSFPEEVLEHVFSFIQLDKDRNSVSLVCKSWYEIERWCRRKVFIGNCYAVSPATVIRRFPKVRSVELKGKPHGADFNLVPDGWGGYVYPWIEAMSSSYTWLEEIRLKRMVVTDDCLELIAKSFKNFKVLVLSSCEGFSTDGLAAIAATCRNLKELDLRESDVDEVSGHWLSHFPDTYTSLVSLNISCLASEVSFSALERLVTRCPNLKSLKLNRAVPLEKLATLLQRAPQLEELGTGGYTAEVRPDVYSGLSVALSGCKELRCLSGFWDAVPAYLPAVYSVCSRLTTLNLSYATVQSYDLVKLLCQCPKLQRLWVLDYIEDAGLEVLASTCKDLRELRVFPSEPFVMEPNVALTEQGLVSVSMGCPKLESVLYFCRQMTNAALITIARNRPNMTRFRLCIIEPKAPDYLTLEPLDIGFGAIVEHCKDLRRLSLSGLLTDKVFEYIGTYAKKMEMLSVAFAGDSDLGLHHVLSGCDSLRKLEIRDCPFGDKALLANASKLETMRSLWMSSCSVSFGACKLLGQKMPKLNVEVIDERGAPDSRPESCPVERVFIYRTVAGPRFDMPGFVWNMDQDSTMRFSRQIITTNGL
T1 sequence (G5ECU1 whole entry, further chain): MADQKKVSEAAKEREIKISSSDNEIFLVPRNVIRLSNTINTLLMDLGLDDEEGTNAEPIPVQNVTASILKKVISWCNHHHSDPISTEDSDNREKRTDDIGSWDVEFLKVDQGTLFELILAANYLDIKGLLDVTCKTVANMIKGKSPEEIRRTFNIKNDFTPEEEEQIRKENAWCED
T1 sequence (P93830 71-114, further chain): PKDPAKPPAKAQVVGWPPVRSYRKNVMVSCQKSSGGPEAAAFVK
T2 sequence (G5ECU1 whole entry): as the sequence (G5ECU1 whole entry, further chain) above
T2 sequence (Q570C0 whole entry D170E/M473L): as the sequence (Q570C0 whole entry F79G/D170E/M473L) above, with G79F counted along it
T2 sequence (P93830 71-114, further chain): as the sequence (P93830 71-114, further chain) above

Regarding `O=C(O)Cc1c[nH]c2ccc(-c3ccccc3)cc12` [5-Ph-IAA, 5-phenylindole-3-acetic acid], the “time at which degradation of the reporter reached the maximum” value in data set [1] (50 μM 5-Ph-IAA, embryos) is listed as 15 to 30 min. For the same compound, the “embryos with rapid decrease of fluorescence intensity” value in data set [1] (50 μM in M9 buffer, 18/23 embryos) came out at 78%; in data set [1] (100 μM, 16/20 embryos), 80%. Moreover, the number of progeny entry in data set [2] is reported as “showed no difference”. Besides, in data set [3], the “AID*::GFP reporter in adults” value is given as “a loss of the reporter was observed”. Besides, the “AID*::GFP reporter expression in second generation larvae” value in data set [4] (5.0 μM 5-Ph-IAA, among different ligand concentrations) is listed as “lowest reporter expression”. Also, in data set [4] (long-term treatment, AID2 system vs AID system), the “ligand concentration required, times lower than that of the AID system (IAA with AtTIR1)” value was “about 1,300 times”. Further, the DC50 in data set [4] (read-out: estimated DC50 value (ligand concentrations required for 50% degradation), combined with AtTIR1 (F79G), larvae treated for one generation) is 0.0045 µM.
On to `CC(=O)OCOC(=O)Cc1c[nH]c2ccc(-c3ccccc3)cc12` [5-Ph-IAA-AM, 5-phenylindole 3-acetic acid acetoxymethyl ester], for which the “degradation of AID*::GFP reporter in embryos” value in data set [1] (50 μM 5-Ph-IAA-AM in M9 buffer) is “rapid degradation in all embryos”.
For the compound `O=C(O)Cc1c[nH]c2ccccc12` [IAA], in data set [5], the DC50 is 59 µM.
In the case of AtTIR1 (F79G)::mRuby, in data set [6], the DC50 (ligand concentration required for 50% degradation) of 5-Ph-IAA, AID*::GFP reporter in larvae treated for one generation amounted to 0.0045 µM. In data set [7], this compound gave a half-life of the AID*::GFP reporter level in larvae treated with 5 µM 5-Ph-IAA of 15.5 min.
Regarding AtTIR1::mRuby, the DC50 (ligand concentration required for 50% degradation) of IAA, AID*::GFP reporter in larvae treated for one generation in data set [6] came to 59 µM. The same compound gave a half-life of the AID*::GFP reporter level in larvae treated with 1 mM IAA in data set [7] of 16.8 min. In addition, in data set [8], the intensity of AID*::GFP in larvae, no ligand added (basal degradation) was 73%.

Values taken from patent US20250122250A1, “AUXIN-DEGRON SYSTEM KIT AND USE THEREFOR” (Inter-University Research Institute Corporation Research …, priority 2021, published 2025).
